{"source": "patent US8415378B2", "about": "“Isoxazol-3(2H)-one analogs as therapeutic agents” (AstraZeneca AB, priority 2009, dated 2013)", "data": [{"molecular_target": "T1, human Glu-plasminogen (Homo sapiens, UniProt P00747)", "T1 construct": "human Glu-plasminogen; purchased Chromogenix, Italy", "T1 sequence (P00747 20-810 limits assumed)": "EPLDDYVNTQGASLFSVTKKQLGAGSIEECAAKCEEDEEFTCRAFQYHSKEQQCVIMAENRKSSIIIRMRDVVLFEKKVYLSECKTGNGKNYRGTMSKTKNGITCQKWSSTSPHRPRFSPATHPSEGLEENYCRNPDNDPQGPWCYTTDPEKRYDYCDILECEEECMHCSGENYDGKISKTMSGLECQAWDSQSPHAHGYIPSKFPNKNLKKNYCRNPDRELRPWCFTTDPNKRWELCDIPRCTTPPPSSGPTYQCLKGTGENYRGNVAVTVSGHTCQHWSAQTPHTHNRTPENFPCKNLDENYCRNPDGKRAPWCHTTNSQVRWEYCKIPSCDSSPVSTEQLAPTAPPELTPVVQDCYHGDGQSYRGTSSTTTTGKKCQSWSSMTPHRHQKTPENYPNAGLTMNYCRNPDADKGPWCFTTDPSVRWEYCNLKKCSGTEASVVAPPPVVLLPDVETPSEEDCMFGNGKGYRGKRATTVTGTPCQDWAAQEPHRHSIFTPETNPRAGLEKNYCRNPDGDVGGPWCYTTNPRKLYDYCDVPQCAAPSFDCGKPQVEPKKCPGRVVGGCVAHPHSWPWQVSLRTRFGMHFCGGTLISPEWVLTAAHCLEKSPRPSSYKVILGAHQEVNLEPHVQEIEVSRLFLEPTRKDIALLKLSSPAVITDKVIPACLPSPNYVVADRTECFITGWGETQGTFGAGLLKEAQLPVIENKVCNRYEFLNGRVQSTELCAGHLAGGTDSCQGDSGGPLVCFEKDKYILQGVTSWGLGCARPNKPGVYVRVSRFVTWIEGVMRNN", "assay": "Clot-lysis buffer assay", "format": "biochemical", "method": "The assay method used for evaluating biological activity of the compounds according to the invention was Clot-lysis buffer assay.\nTested substance were added to the reaction mixture in 10% DMSO. Reaction was started by the addition of thrombin.\nMeasured according to the Clot-lysis buffer assay described above.", "units": {"IC50": "µM"}, "values": [{"molecule": "O=c1cc([C@H]2CCN[C@@H](c3ccc(Cl)c(F)c3)C2)o[nH]1", "note": "[Example 49, 5-((2R,4S)-2-(4-Chloro-3-fluorophenyl)piperidin-4-yl)isoxazol-3(2H)-one]", "IC50": 2}, {"molecule": "CS(=O)(=O)c1ccc(C[C@@H]2C[C@H](c3cc(=O)[nH]o3)CCN2)cc1", "note": "[Example 118, 5-((2S,4R)-2-(4-(Methylsulfonyl)benzyl)piperidin-4-yl)isoxazol-3(2H)-one]", "IC50": 225}, {"molecule": "O=c1cc([C@H]2CCN[C@@H](c3cc(F)c(Cl)c(F)c3)C2)o[nH]1", "note": "[Example 65, 5-((2R,4S)-2-(4-Chloro-3,5-difluorophenyl)piperidin-4-yl)isoxazol-3(2H)-one]", "IC50": 2.2}, {"molecule": "O=c1cc([C@@H]2CCN[C@@H](c3cccc(C(F)(F)F)c3)C2)o[nH]1", "note": "(relative stereo) [Example 32, 5-(Trans-2-(3-(trifluoromethyl)phenyl)piperidin-4-yl)isoxazol-3(2H)-one]", "IC50": 23.6}, {"molecule": "O=c1cc([C@@H]2CCN[C@@H](c3ccc(Cl)c(F)c3)C2)o[nH]1", "note": "(relative stereo) [Example 50, 5-(Trans-2-(4-chloro-3-fluorophenyl)piperidin-4-yl)isoxazol-3(2H)-one]", "IC50": 5.3}, {"molecule": "O=c1cc([C@@H]2CCN[C@H](Cc3ccc(F)c(F)c3)C2)o[nH]1", "note": "[Example 121, 5-((2S,4R)-2-(3,4-Difluorobenzyl)piperidin-4-yl)isoxazol-3(2H)-one]", "IC50": 120}, {"molecule": "O=c1cc([C@@H]2CCN[C@H](COC3CCCCC3)C2)o[nH]1", "note": "[Example 85, 5-((2S,4R)-2-(Cyclohexyloxymethyl)piperidin-4-yl)isoxazol-3(2H)-one]", "IC50": 173}, {"molecule": "CC(C)(C)c1cc(C[C@H]2C[C@@H](c3cc(=O)[nH]o3)CCN2)cc(C(C)(C)C)c1", "note": "[Example 146, 5-((2R,4S)-2-(3,5-Di-tert-butylbenzyl)piperidin-4-yl)isoxazol-3(2H)-one]", "IC50": 6.6}, {"molecule": "O=c1cc([C@H]2CCN[C@@H](CC3CCC(F)(F)CC3)C2)o[nH]1", "note": "[Example 89, 5-((2S,4S)-2-((4,4-Difluorocyclohexyl)methyl)piperidin-4-yl)isoxazol-3(2H)-one]", "IC50": 1.5}, {"molecule": "O=c1cc([C@H]2CCN[C@@H](c3ccc(C(F)(F)F)cc3)C2)o[nH]1", "note": "[Example 33, 5-((2R,4S)-2-(4-(Trifluoromethyl)phenyl)piperidin-4-yl)isoxazol-3(2H)-one]", "IC50": 1.43}, {"molecule": "O=c1cc([C@H]2CCN[C@@H](c3ccc(C(F)(F)F)nc3)C2)o[nH]1", "note": "[Example 40, 5-((2R,4S)-2-(6-(Trifluoromethyl)pyridin-3-yl)piperidin-4-yl)isoxazol-3(2H)-one]", "IC50": 1.5}, {"molecule": "CC(C)(C)c1ccc([C@H]2C[C@H](c3cc(=O)[nH]o3)CCN2)cc1", "note": "(relative stereo) [Example 37, 5-(Trans-2-(4-tert-butylphenyl)piperidin-4-yl)isoxazol-3(2H)-one]", "IC50": 228}, {"molecule": "O=c1cc([C@H]2CCN[C@@H](CCc3ccc(F)cc3)C2)o[nH]1", "note": "[Example 92, 5-((2S,4S)-2-(4-Fluorophenethyl)piperidin-4-yl)isoxazol-3(2H)-one]", "IC50": 1.1}, {"molecule": "O=c1cc([C@H]2CCN[C@@H](Cc3ccc(Cl)cc3)C2)o[nH]1", "note": "[Example 115, 5-((2R,4S)-2-(4-Chlorobenzyl)piperidin-4-yl)isoxazol-3(2H)-one]", "IC50": 0.8}, {"molecule": "O=c1cc([C@@H]2CCN[C@@H](Cc3ccc(OC(F)(F)F)cc3)C2)o[nH]1", "note": "(relative stereo) [Example 114, 5-(Trans-2-(4-(trifluoromethoxy)benzyl)piperidin-4-yl)isoxazol-3(2H)-one]", "IC50": 6.5}, {"molecule": "O=c1cc([C@H]2CCN[C@@H](Cc3ccc(OC(F)(F)F)cc3)C2)o[nH]1", "note": "[Example 113, 5-((2R,4S)-2-(4-(Trifluoromethoxy)benzyl)piperidin-4-yl)isoxazol-3(2H)-one]", "IC50": 1.1}, {"molecule": "O=c1cc([C@@H]2CCN[C@@H](c3ccc(Cl)cc3)C2)o[nH]1", "note": "(relative stereo) [Example 29, 5-(Trans-2-(4-chlorophenyl)piperidin-4-yl)isoxazol-3(2H)-one]", "IC50": 24}, {"molecule": "O=c1cc([C@@H]2CCN[C@@H](Cc3cc(F)cc(F)c3)C2)o[nH]1", "note": "[Example 133, 5-((2R,4R)-2-(3,5-Difluorobenzyl)piperidin-4-yl)isoxazol-3(2H)-one]", "IC50": 120}]}]}
